For 19 compounds, EC50, AC50 and IC50 results are on record in ChEMBL document CHEMBL1201862, “PubChem BioAssay data set” (2004).

One assay concerns the target T1, Streptokinase A (Streptococcus pyogenes serotype M1, UniProt P10520).
T1 sequence (P10520 whole entry): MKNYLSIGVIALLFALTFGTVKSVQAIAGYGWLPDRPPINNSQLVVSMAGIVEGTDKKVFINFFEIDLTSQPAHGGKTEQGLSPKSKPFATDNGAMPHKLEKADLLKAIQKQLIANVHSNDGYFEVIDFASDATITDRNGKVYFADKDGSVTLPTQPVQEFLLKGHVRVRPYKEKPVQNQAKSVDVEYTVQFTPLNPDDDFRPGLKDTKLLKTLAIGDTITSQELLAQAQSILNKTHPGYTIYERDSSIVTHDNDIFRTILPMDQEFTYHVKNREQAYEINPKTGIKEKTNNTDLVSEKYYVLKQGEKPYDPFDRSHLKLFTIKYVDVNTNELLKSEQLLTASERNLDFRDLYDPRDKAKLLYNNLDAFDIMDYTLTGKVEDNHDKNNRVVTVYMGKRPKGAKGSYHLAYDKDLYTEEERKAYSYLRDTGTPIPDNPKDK
As to the kind of experiment: S. pyogenes streptokinase expression inhibitors, potency, dose response, plasminogen activation absorbance, OD405 (AID 1914).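 Also: secreted streptokinase activity via plasminogen activation per viability signal from cell pellet.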 The format is functional, Streptococcus pyogenes M1 GAS.

Assay [1] relates to Streptococcus sp. 'group A'. Briefly: growth inhibition of control SK(-) GAS strain, dose response, counter-screen for streptokinase expression inhibitor project, luminescence, kanamycin, BacTiterGlo, confirmation (AID 1900). The format is functional, organism-based. On the technique in general: A counterscreen serves to expose hits that act by an unwanted route or on another target.

Assay [2] has as its target Voltage-dependent T-type calcium channel subunit alpha-1H (Homo sapiens, UniProt O95180). The format is functional.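 Also: channel activity triggered by adding a high calcium stimulation buffer.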
A further assay relates to Streptococcus. Briefly: Group A Streptococcus viability loss, dose response, counter-screen for streptokinase expression inhibitor project, luminescence, BacTiterGlo (AID 1915).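 Also: potency for reduction of bacterial viability or growth.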 The format is functional, organism-based.
A short description of assay [3]: ZM109 Env clade C HIV-1 fusion inhibitors, dose response, HeLa effector, CEM target cells, luciferase, cherry-pick (AID 652058). The format is functional, cell-based.
Assay [4] can be described thus: inhibitors of clade B AD8 Env fusion, dose response, cell-based, cherry-pick (AID 652062).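 Also: luciferase signal from cell-cell fusion driven by HIV-1 clade B AD8 Env; potency is for inhibitors of fusion seen as a drop in luminescence.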 The format is functional.
Assay [5] is described as follows: inhibitors of HIV Env-driven cell fusion, dose response, cherry-pick (AID 652057). The format is functional, cell-based.
Assay [6] in a line: off-target signal loss in HeLa-CEM21 co-culture – HeLa F-luc CTL cells, cherry-picked, counter-screen for HIV-1 Env fusion inhibitor project, dose response (AID 652040).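 Also: potency for signal decrease marking cytotoxic or nonspecific inhibition.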 The format is functional, cell-based.
In assay [7] the target is Peroxisome proliferator-activated receptor gamma/Nuclear receptor coactivator 3 (Homo sapiens, UniProt P37231). Briefly: TR-FRET dose response biochemical High Throughput Screening assay for agonists of the steroid receptor coactivator 3 (SRC-3) recruitment by the peroxisome proliferator-activated receptor gamma (PPAR gamma): non-selective agonists. [Related pubchem assays: 1301 (Confirmation screen.), 1048 (Primary screen.)]. The format is functional. (In general: In TR-FRET formats the signal depends on donor and acceptor labels being close together.)

The target of assay [8] is Peroxisome proliferator-activated receptor gamma/Nuclear receptor coactivator 1 (Homo sapiens, UniProt P37231). As to the kind of experiment: TR-FRET dose response biochemical High Throughput Screening assay for agonists of the steroid receptor coactivator 1 (SRC-1) recruitment by the peroxisome proliferator-activated receptor gamma (PPAR gamma): non-selective agonists. [Related pubchem assays (depositor defined):AID1300, AID1808, AID504735, AID631]. The format is protein assay.

The target in assay [9] is Peroxisome proliferator-activated receptor gamma/Nuclear receptor coactivator 2 (Homo sapiens, UniProt P37231). Briefly: TR-FRET dose response biochemical High Throughput Screening assay for agonists of the steroid receptor coactivator 2 (SRC-2) recruitment by the peroxisome proliferator-activated receptor gamma (PPAR gamma): non-selective agonists. [Related pubchem assays: 1297, 1032 ]. The format is functional.

Assay [10] concerns the target DNA dC->dU-editing enzyme APOBEC-3G (Homo sapiens, UniProt Q9HC16). The format is functional.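 Also: Dose-response counterscreen measuring inhibition of APOBEC3G DNA deaminase activity, run while confirming APOBEC3A inhibitors.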
The target of assay [11] is DNA dC->dU-editing enzyme APOBEC-3A (Homo sapiens, UniProt P31941). As to the kind of experiment: Dose Response confirmation of small molecule APOBEC3A DNA Deaminase Inhibitors via a fluorescence-based single-stranded DNA deaminase assay. [Related pubchem assays (depositor defined):AID493011, AID493024]. The format is functional.
A further assay concerns INS1. Briefly: beta cell apoptosis inhibitors, cytokine rescue, dose response, luminescence, retest (AID 449756).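 Also: cell death triggered by IL-1 beta plus TNF-alpha plus IFN-gamma mixture; protective hits raise ATP signal compared with cytokine alone wells.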 The format is functional, cell-based. Particulars: Rattus norvegicus.
Assay [12] can be described thus: cytotoxicity toward NIH3T3 fibroblasts, dose response, counter-screen, cell-based, ATP luminescence, mouse fibroblasts (AID 2010).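 Also: cells exposed to compound for about 90 hours before reading.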 The format is functional.
For assay [13], the target named is T2, Long-chain-fatty-acid--AMP ligase FadD28 (Mycobacterium tuberculosis, UniProt P9WQ59).
T2 sequence (P9WQ59 whole entry): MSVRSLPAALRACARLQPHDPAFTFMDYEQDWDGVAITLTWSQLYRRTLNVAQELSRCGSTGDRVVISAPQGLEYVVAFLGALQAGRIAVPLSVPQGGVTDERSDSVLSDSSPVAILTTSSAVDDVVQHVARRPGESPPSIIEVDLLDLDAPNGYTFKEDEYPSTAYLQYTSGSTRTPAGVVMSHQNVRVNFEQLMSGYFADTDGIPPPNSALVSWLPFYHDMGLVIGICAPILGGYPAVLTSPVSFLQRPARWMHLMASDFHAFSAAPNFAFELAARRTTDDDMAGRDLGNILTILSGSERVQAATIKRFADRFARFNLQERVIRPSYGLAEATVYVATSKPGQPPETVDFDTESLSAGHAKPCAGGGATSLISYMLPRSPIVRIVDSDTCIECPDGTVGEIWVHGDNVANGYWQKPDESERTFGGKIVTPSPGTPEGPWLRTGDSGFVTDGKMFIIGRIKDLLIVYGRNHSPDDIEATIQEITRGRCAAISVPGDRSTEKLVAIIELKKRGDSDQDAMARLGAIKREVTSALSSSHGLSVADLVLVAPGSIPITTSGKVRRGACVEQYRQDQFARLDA
Briefly: Fluorescence polarization aasay to screen for inhibitors that compete for the binding of FadD28 to a bisubstrate Measured in Biochemical System Using Plate Reader - 2147-01_Inhibitor_Dose_CherryPick_Activity. The format is functional, Mycobacterium tuberculosis H37Rv.

Assay [14] in a line: inhibitors of intracellular T. cruzi replication, confirmation, NIH3T3 host cells, beta-gal luminescence (AID 2044).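 Also: intracellular parasites grown in NIH/3T3 mouse fibroblasts as host cells; luminescent beta-galactosidase reporter signal from transgenic T. cruzi replicating inside host cells; inhibitors lower the luminescence signal.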 The format is functional, cell-based.
The target in assay [15] is T3, Heat shock factor protein 1 (Mus musculus, UniProt P38532).
T3 sequence (P38532 whole entry): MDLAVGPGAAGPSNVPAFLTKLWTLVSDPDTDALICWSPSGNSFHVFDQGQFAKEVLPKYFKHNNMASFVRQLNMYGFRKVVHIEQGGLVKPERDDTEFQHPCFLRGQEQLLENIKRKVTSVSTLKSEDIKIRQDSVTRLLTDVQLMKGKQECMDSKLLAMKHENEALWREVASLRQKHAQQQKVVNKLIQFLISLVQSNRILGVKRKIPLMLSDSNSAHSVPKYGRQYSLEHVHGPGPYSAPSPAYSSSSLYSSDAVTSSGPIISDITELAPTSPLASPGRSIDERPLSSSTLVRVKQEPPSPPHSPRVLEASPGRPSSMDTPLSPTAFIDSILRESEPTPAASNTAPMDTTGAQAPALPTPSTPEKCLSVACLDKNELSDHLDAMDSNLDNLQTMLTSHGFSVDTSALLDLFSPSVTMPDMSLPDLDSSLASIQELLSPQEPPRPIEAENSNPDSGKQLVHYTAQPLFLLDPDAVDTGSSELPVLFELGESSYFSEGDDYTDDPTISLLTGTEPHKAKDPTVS
Briefly: HSF1 potentiators in luciferase reporter cells, confirmation, cell-based, NIH3T3, luminescence, dose retest (AID 435004).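 Also: stress induced by proteasome inhibitor MG132 added 30 min after compound; luciferase reporter driven by HSF1 response element in NIH3T3 cells; actives raise luminescence as potentiators of the MG132 stress response.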 The format is functional. For orientation: Reporter assays use an easily measured gene product as a stand-in for the process of interest.

A further assay is described as follows: cells. The format is functional.
For another assay, the target named is Paired box protein Pax-8 (Homo sapiens, UniProt Q06710). Briefly: inhibitors of PAX8-driven TPO luciferase reporter, dose response, RMG-I cells, cherry-pick (AID 687027).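 Also: luciferase reporter driven by Pax8 target thyroperoxidase promoter measured by SteadyGlo luminescence.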 The format is functional, cell-based.
For assay [16], the target named is T4, Calpain-2 catalytic subunit (Sus scrofa, UniProt P43367).
T4 sequence (P43367 whole entry): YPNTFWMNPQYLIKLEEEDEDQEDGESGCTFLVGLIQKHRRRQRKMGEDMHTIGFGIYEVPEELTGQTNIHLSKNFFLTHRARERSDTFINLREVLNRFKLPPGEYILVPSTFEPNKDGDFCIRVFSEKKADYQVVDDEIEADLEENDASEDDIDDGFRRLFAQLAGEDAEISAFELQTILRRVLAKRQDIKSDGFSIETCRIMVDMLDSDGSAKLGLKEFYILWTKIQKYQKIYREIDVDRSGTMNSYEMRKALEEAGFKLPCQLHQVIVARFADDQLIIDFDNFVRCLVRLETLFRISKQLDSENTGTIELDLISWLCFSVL
As to the kind of experiment: pig calpain II inhibitor potency, dose response, biochemical, fluorogenic peptide substrate (AID 1420). The format is functional.

Activity calls are given as the source filed them.

Sequence of DNA dC->dU-editing enzyme APOBEC-3G (Q9HC16 whole entry): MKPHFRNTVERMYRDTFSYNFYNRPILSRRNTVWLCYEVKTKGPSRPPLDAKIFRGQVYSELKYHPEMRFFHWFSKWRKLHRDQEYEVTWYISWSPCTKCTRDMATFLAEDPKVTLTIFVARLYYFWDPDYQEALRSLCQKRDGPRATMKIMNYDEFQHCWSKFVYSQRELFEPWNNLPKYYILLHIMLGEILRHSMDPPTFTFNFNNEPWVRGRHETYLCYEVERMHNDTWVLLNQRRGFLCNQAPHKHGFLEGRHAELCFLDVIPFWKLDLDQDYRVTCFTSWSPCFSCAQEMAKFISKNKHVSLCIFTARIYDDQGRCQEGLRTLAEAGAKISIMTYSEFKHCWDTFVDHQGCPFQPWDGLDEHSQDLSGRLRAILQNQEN
Sequence of Voltage-dependent T-type calcium channel subunit alpha-1H (O95180 whole entry): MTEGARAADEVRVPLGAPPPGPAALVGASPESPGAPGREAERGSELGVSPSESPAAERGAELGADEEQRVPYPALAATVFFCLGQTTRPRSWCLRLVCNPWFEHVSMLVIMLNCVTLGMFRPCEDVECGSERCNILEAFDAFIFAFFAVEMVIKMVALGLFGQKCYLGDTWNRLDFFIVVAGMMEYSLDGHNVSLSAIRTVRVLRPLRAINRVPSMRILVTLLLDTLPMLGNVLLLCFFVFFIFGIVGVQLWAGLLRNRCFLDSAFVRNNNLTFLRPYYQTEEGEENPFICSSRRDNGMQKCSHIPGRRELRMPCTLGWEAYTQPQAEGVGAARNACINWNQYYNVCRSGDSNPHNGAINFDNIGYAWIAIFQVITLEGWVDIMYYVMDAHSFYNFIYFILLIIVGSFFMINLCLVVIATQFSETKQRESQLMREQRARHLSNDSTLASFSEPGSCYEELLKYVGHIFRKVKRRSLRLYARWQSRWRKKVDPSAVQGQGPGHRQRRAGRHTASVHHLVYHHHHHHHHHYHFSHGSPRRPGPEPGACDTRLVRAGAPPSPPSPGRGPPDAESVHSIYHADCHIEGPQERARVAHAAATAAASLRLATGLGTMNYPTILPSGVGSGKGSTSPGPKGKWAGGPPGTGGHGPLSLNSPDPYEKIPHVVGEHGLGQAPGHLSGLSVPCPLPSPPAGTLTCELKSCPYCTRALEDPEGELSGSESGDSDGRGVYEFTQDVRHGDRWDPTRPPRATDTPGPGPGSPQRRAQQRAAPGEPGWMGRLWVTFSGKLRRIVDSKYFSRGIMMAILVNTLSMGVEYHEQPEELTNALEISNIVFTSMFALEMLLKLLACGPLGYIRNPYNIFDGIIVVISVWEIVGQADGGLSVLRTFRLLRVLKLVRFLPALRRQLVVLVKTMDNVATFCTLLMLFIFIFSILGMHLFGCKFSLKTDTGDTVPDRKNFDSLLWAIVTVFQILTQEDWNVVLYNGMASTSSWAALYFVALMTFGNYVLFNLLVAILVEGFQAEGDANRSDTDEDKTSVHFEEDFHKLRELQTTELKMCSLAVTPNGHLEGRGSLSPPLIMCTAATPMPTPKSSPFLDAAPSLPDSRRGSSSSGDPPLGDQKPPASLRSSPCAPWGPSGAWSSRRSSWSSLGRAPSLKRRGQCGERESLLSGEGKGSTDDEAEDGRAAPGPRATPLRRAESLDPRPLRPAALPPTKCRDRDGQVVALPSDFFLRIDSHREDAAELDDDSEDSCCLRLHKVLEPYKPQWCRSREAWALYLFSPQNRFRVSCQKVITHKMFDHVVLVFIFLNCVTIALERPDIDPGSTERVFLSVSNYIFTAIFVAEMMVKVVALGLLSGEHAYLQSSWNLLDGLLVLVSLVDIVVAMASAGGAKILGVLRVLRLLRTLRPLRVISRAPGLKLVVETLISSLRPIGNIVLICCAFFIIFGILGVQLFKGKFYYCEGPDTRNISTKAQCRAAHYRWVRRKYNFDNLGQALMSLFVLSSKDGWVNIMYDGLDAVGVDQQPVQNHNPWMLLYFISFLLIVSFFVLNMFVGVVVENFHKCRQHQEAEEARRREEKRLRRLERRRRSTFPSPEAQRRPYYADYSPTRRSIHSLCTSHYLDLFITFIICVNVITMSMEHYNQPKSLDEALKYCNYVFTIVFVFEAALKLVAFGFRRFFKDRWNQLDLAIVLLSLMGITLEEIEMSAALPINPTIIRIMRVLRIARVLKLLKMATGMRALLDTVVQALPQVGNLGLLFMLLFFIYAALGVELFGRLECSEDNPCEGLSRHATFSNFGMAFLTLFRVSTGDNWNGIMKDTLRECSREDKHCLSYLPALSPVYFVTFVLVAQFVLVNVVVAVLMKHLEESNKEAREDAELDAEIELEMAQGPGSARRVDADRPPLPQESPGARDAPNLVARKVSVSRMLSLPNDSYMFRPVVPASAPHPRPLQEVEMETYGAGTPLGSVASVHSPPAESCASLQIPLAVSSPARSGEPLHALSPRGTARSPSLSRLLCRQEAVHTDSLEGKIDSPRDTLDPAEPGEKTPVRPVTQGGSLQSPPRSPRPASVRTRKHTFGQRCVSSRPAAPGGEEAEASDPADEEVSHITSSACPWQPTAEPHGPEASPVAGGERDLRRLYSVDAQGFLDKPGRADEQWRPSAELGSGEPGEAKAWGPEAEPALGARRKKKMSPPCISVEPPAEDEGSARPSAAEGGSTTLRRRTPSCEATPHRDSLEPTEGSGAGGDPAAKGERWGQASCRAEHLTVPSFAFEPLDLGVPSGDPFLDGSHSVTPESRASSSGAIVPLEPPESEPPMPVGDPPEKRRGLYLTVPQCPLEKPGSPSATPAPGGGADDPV
Sequence of DNA dC->dU-editing enzyme APOBEC-3A (P31941 whole entry): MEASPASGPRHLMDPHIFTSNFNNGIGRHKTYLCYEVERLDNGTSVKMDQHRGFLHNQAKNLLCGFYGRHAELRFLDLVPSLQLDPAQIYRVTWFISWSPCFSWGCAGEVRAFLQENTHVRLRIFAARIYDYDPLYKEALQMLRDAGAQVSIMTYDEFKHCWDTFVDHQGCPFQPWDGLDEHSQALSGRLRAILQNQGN
Sequence of Peroxisome proliferator-activated receptor gamma/Nuclear receptor coactivator 3 (P37231 whole entry): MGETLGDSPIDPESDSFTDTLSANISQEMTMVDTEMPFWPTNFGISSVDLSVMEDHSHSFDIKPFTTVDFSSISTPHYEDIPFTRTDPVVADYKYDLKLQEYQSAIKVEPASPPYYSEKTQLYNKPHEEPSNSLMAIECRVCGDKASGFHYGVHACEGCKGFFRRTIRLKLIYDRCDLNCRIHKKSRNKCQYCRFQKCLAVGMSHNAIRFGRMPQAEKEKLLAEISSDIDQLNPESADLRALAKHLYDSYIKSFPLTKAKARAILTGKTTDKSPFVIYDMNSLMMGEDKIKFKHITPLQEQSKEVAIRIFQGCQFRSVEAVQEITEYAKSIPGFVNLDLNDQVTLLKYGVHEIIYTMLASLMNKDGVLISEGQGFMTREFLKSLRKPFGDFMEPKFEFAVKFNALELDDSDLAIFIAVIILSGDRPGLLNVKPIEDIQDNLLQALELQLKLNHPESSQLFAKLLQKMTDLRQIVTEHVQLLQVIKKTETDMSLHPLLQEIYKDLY
Sequence of Peroxisome proliferator-activated receptor gamma/Nuclear receptor coactivator 3 (Q9Y6Q9 whole entry, further chain): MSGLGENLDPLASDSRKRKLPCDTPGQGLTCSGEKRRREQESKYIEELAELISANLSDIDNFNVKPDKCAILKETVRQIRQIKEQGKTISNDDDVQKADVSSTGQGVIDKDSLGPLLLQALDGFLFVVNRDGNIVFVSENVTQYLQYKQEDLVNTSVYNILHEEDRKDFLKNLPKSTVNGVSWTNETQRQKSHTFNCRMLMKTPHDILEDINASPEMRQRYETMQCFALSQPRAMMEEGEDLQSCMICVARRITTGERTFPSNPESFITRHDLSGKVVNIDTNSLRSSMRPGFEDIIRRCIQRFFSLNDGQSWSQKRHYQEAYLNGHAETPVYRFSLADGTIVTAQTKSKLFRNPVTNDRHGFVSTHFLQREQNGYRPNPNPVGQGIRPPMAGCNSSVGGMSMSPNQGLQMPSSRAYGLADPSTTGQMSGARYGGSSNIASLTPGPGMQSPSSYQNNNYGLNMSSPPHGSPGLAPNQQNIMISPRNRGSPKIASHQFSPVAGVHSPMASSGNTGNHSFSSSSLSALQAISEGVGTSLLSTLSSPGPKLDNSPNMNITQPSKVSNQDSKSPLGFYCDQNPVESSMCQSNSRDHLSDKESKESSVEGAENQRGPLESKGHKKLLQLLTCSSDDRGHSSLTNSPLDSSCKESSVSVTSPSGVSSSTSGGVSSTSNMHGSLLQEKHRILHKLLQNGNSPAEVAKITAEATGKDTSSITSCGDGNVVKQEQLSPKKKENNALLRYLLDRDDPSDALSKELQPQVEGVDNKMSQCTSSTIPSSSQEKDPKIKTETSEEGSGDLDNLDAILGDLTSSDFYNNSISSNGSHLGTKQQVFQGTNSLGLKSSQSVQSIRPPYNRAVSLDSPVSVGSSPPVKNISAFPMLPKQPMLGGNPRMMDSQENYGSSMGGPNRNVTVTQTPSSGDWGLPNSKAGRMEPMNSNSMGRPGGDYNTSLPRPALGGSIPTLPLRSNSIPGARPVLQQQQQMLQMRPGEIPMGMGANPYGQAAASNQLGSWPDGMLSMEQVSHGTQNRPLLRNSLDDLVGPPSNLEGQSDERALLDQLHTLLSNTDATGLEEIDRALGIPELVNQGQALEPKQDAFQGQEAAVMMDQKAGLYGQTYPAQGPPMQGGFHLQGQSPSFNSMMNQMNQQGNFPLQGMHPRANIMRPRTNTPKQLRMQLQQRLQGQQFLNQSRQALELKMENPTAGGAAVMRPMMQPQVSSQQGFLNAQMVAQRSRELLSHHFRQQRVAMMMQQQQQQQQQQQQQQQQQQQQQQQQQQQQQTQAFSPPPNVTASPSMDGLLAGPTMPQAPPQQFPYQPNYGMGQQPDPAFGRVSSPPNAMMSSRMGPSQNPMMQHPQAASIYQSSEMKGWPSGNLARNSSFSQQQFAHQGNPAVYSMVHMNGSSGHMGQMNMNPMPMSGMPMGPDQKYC

The EC50 is the concentration at which the effect is half-maximal. Regarding `O=C(CN1CCc2ccccc2C1)Nc1ccccc1N1CCCCCC1`, the 50% effective concentration (EC50) was 13 µM (active) at Streptokinase A, 6.54 µM (active) in assay [1], 8.39 µM (active) in assay [2] and 13.3 µM (active) in the assay with Streptococcus.

Usually AC50 stands for the concentration giving half of the maximal activity seen. For the compound `Cc1ccc(N2C(=O)N3[C@H](c4cccc(C)c4)[C@@H]4C(=O)N(Cc5ccccc5)C(=O)[C@@H]4[C@]3(C)C2=O)cc1`, the AC50 in assay [3] was 1.2 µM (active); in assay [4], 2.33 µM (active); in [5] it was 3.36 µM (active); in assay [6], 3.88 µM (active).

Take `O=C(Nc1ccc(N2CCN(C(=O)c3ccccc3)CC2)c(Cl)c1)c1cccnc1`: the EC50 is > 150 µM (not active) on Streptokinase A, 12.4 µM (active) in assay [1] and 14.7 µM (active) in the assay on Streptococcus. Further, the results for the AC50 in assay [4] and in assay [6] were 12.6 µM (active) and 20.5 µM (active), respectively.

For `Cc1ccc2cc(C#N)c(NCCNC(=O)C3CC3)nc2c1C`, the half-maximal activity concentration (AC50) in assay [3] was 4.47 µM (active); in [4], 6.25 µM (active); in assay [5], 4.5 µM (active); in [6] it was 2.96 µM (active).

With `O=C(CCC1N=C2c3ccccc3N=C(SCc3ccccc3Cl)N2C1=O)NCc1ccco1` (configuration not stated), the EC50 in assay [2] is 14 µM (active).

`N#Cc1cc2c(nc1SCc1ccccc1)CCCCC2`: the EC50 is > 79.4 µM (not active) in [7], > 8.82 µM (inactive) in [8] and 12.7 µM (not active) in assay [9].

Regarding `O=C(Nc1nnc(-c2ccc3c(c2)CCCC3)o1)C1COc2ccccc2O1` (configuration not stated), in assay [2], the 50% effective concentration (EC50) is 1.37 µM (active).

By IC50 is commonly meant the concentration that gives 50% inhibition. Consider `O=C(CSc1nnnn1-c1ccccc1)N1CCc2ccccc21`, for which the 50% inhibitory concentration (IC50) in assay [10] was 4.32 µM (active); in assay [11], 6.17 µM (active).

Turning to `Cc1ccc(C)c(CS(=O)(=O)c2cn(CC(=O)N3CCC(C)CC3)c3ccccc23)c1`, the AC50 is 3.03 µM (active) in assay [3], 2.04 µM (active) in [4], 2.82 µM (active) in [5] and 3.13 µM (active) in assay [6].

As for `CCn1c(=O)cc(SCC(=O)Nc2ccc(OC)c(OC)c2)c2ccccc21`, the half-maximal effective concentration (EC50) is > 79.4 µM (not active) in assay [7], > 79.4 µM (inactive) in [8] and 53.8 µM (not active) in assay [9].

For `N=c1c2c(-c3ccccc3)c(-c3ccccc3)n(Cc3ccco3)c2ncn1CCCN1CCOCC1`, the half-maximal activity concentration (AC50) in the assay on INS1 was 14.3 µM (active); in assay [13] it was 77.3 µM (active). Moreover, the 50% effective concentration (EC50) in assay [12] was > 60 µM (not active); in [14] it was 1.49 µM (active); in assay [15] it was > 260 µM (inactive).

Take `COc1cccc(OCC(O)CN2CCC(Cc3ccccc3)CC2)c1` (configuration not stated): the EC50 in [2] was 4.62 µM (active).

As to `CC(=O)c1ccc(S(=O)(=O)N2Cc3ccccc3CC2C(=O)O)cc1` (configuration not stated), the values for the IC50 in assay [10] and in assay [11] were 43.7 µM (active) and 14 µM (active), respectively.

For `CC(C)(C)c1ccc(OCCC(=O)Nc2cccc(S(=O)(=O)N3CCOCC3)c2)cc1`, the concentration at half-maximal activity (AC50) in assay [4] was 53.1 µM (active); in assay [5], 22.2 µM (active); in assay [6] it was 48.2 µM (active).

Consider `COc1ccc2[nH]c(O)c(N=O)c2c1`, for which the IC50 in assay [10] is 4.41 µM (active); in [11], 2.64 µM (active).

With `CSC1=NP(=S)(SC)N(C)c2nc3n(c21)CCC3` (configuration not stated), the values for the EC50 in assay [7], in assay [8] and in [9] were > 79.4 µM (not active), > 79.4 µM (inactive) and > 79.4 µM (not active), respectively.

Consider `CN1CCN(c2ccc(Cl)cc2NC(=O)CC2OC(=O)c3ccccc32)CC1` (configuration not stated), for which the half-maximal inhibitory concentration (IC50) in assay [10] is 2.9 µM (active); in assay [11] it was 3.24 µM (active).

In the case of `CC(/C=C(\O)c1ccncc1)=N\c1ccccc1O`, the IC50 in “cells” was 3.1 µM (active). Moreover, the EC50 in assay [2] is 3.26 µM (active).

As for `COc1cc(/C=N/NS(=O)(=O)c2ccc(C)cc2)ccc1OCc1ccc(C(=O)O)cc1`, the AC50 is 16.1 µM (active) in assay [3]; 8.31 µM (active) in [4]; 23.9 µM (active) on Paired box protein Pax-8; 2.5 µM (active) in assay [5]; 3.18 µM (active) in assay [6]. Besides, the half-maximal inhibitory concentration (IC50) in [16] is on record as > 50 µM (not active).
